Values quoted from earlier work as cited in patent US20230143309A1, “PYRROLOBENZODIAZEPINE ANTIBODY CONJUGATES” (priority 2016, published 2023).

Legend:
human tumour cell lines = conditions: for activity against a range of human tumour cell lines: quoted from UCL REF 2014 impact study
[1] = system: human tumour xenograft models; conditions: quoted from UCL REF 2014 impact study

Row | Compound | cytotoxicity relative to SG2057 (less cytotoxic) (human tumour cell lines; Hartley et al 2012) | activity in human tumour xenograft models [1] | activity against a range of human tumour cell lines (human tumour cell lines)
1 | C=C1C[C@H]2C=Nc3cc(OCCCOc4cc5c(cc4OC)C(=O)N4CC(=C)C[C@H]4C=N5)c(OC)cc3C(=O)N2C1 [SG2000] | at least 10 times | – | –
2 | C=C1C[C@H]2C=Nc3cc(OCCCCCOc4cc5c(cc4OC)C(=O)N4CC(=C)C[C@H]4C=N5)c(OC)cc3C(=O)N2C1 [SG2057] | – | curative activity | picomolar/sub-picomolar activity
3 | COc1ccc(C2=CN3C(=O)c4cc(OC)c(OCCCOc5cc6c(cc5OC)C(=O)N5C=C(c7ccc(OC)cc7)C[C@H]5C=N6)cc4N=C[C@@H]3C2)cc1 [SG2202] | – | curative activity | picomolar/sub-picomolar activity
